Results: patent US20090209460A1, “COMPOSITIONS AND METHODS FOR TREATING OBESITY AND RELATED METABOLIC DISORDERS” (Amylin Pharmaceuticals, Inc., priority 2005, published 2009)
Read-outs that look alike come from different tables or passages of the source. Residues, ends and D or L forms follow the SMILES beside them.

Key:
NIH/Swiss mice = experiment: acute food intake assay, lean overnight-fasted NIH/Swiss mice, intraperitoneal injection; assay type: in vivo, mouse; conditions: for Food Intake Inhibition: mouse assay, dose of 200 mg/kg, measured at 60 minutes
Method: The effect of NMX Peptides, FNX Peptides or NMX Receptor agonists on food intake when systemically administered was investigated using an acute food intake assay. This assay measured food consumption in lean subjects. Lean, group-housed, overnight-fasted NIH/Swiss mice. All in vivo tests were performed with peripheral injections of peptide. […] The dose-response data are presented herein. The protocol is described below. Female NIH/Swiss mice (8-24 weeks old) were group housed with a 12:12 hour light:dark cycle, with lights on at 0300. Water and a standard pelleted mouse chow diet are available ad libitum, except as noted. Animals are fasted starting at approximately 1530 hrs, 1 day prior to experiment. At time=0 min, all animals are given an intraperitoneal injection of vehicle or polypeptide in a volume of 200 uL/mouse and immediately given a pre-weighed amount (10-15 g) of the standard chow. Food is removed and weighed at 30, 60, and 120 minutes to determine the amount of food consumed. The effects of treatment on food intake are expressed as % change relative to control.

[1] = brush border membrane (BBM) stability assay; assay type: in vitro ADME, human; conditions: brush border membrane extract (e.g. kidney)
Method: Some exemplary NMX Peptides and FNX Peptides were tested for stability in a brush border membrane (BBM) assay as described herein. To determine the enzymatic stability of peptide hormones peptides are incubated with a preparation of human brush border membranes extract (e.g., kidney), and the stability of the peptide is determined by measuring concentration of the intact peptide at specific intervals. The brush border membrane extract contains dipeptidyl peptidase IV (DPP-IV), neutral endopeptidases, peptidyl-dipeptidase A, carboxypeptidases and aminopeptidases. These are the primary enzymes that degrade peptides in vivo and are found in the kidneys, liver, lungs and pancreas. Resistance against these human proteases would increase peptide half-life. In the BBM assay test peptide was subjected to digestion over a period of five (5) hours with human brush border membrane extracts, e.g. kidney, at 37° C. At desired timepoints digestion was stopped by addition of quench solution, typically 50% ACN, 1% FA. After centrifugation to remove membrane debris, supernatant was subjected to mass spectrometry using a selected ion scan for the intact molecule of interest. Values are expressed as a percent of stable. A value of at least 80 or greater is regarded as an extremely stable molecule. A value of at least 70 or greater is a molecule with significant stability.

[2] = percent compound remaining after a 5 hour incubation, human brush border membrane assay, read-out: hBBM

Row | SMILES | FI (60′, 200) (NIH/Swiss mice; food intake, % change relative to control, 60 min, dose 200) | remaining at 5 h ([1]; percent of stable, human brush border membrane extracts, five hours, 37° C., read-out: BBM) | Food Intake Inhibition (NIH/Swiss mice) | remaining at 5 h [1, 2]
1 | CC[C@H](C)[C@H](NC(=O)[C@@H](NC(=O)CNC(=O)CNC(=O)[C@@H]1CCCN1C(=O)[C@@H](NC(=O)[C@H](CCC(N)=O)NC(=O)[C@@H](NC(=O)[C@H](CCC(=O)O)NC(=O)[C@H](CCC(=O)O)NC(=O)[C@H](CC(=O)O)NC(=O)[C@H](CO)NC(=O)[C@H](CC(N)=O)NC(=O)[C@H](CO)NC(=O)[C@H](CCCCN)NC(=O)CNC(=O)[C@H](CC(C)C)NC(=O)[C@H](CCCCN)NC(=O)[C@H](CCC(N)=O)NC(=O)[C@@H](NC(=O)[C@H](CCCCN)NC(=O)[C@H](CO)NC(=O)[C@H](Cc1ccc(O)cc1)NC(=O)[C@H](Cc1c[nH]cn1)NC(=O)[C@H](Cc1ccccc1)NC(=O)[C@H](CC(C)C)NC(=O)[C@@H](N)Cc1ccccc1)[C@@H](C)O)C(C)C)C(C)C)C(C)C)C(=O)N[C@@H](CO)C(=O)N[C@@H](CC(N)=O)C(=O)NCC(N)=O [Compound 165061] (H-FLFHYSKTQKLGKSNSDEEVQVPGGVISNG-NH2; N-terminus assumed) | 0% | 57% |  | 
2 | CC(C)C[C@H](NC(=O)[C@H](CCCCN)NC(=O)[C@H](CCC(N)=O)NC(=O)[C@@H](NC(=O)[C@H](CCCCN)NC(=O)[C@H](CO)NC(=O)[C@@H](N)Cc1ccc(O)cc1)[C@@H](C)O)C(=O)NCC(=O)N[C@@H](CCCCN)C(=O)N[C@@H](CO)C(=O)N[C@@H](CC(N)=O)C(=O)N[C@@H](CCC(=O)O)C(=O)N[C@@H](CCC(=O)O)C(=O)N[C@@H](CC(C)C)C(=O)N[C@@H](CCC(N)=O)C(=O)N[C@@H](CO)C(=O)N1CCC[C@H]1C(=O)N[C@@H](CO)C(=O)N[C@@H](CCCNC(=N)N)C(=O)NCC(=O)N[C@@H](Cc1ccc(O)cc1)C(=O)N[C@@H](Cc1ccccc1)C(=O)N[C@@H](CC(C)C)C(=O)N[C@@H](Cc1ccccc1)C(=O)N[C@@H](CCCNC(=N)N)C(=O)N1CCC[C@H]1C(=O)N[C@@H](CCCNC(=N)N)C(=O)N[C@@H](CC(N)=O)C(N)=O (H-YSKTQKLGKSNEELQSPSRGYFLFRPRN-NH2; N-terminus assumed) |  |  | −69% | 67%
3 | CC(C)C[C@H](NC(=O)[C@H](CCCCN)NC(=O)[C@H](CCC(N)=O)NC(=O)[C@@H](NC(=O)[C@H](CCCCN)NC(=O)[C@H](CO)NC(=O)[C@H](Cc1ccc(O)cc1)NC(=O)[C@H](Cc1c[nH]cn1)NC(=O)[C@H](Cc1ccccc1)NC(=O)[C@H](CC(C)C)NC(=O)[C@@H](N)Cc1ccccc1)[C@@H](C)O)C(=O)NCC(=O)N[C@@H](CCCCN)C(=O)N[C@@H](CO)C(=O)N[C@@H](CC(N)=O)C(=O)N[C@@H](CCC(=O)O)C(=O)N[C@@H](CCC(=O)O)C(=O)N[C@@H](CC(C)C)C(=O)N[C@@H](CCC(N)=O)C(=O)N[C@@H](CO)C(=O)N1CCC[C@H]1C(=O)N[C@@H](Cc1ccccc1)C(=O)N[C@@H](C)C(=O)N[C@@H](CO)C(=O)N[C@@H](CCC(N)=O)C(=O)N[C@@H](CO)C(=O)N[C@@H](CCCNC(=N)N)C(=O)NCC(=O)N[C@@H](Cc1ccc(O)cc1)C(=O)N[C@@H](Cc1ccccc1)C(=O)N[C@@H](CC(C)C)C(=O)N[C@@H](Cc1ccccc1)C(=O)N[C@@H](CCCNC(=N)N)C(=O)N1CCC[C@H]1C(=O)N[C@@H](CCCNC(=N)N)C(=O)N[C@@H](CC(N)=O)C(N)=O [Des-Val16,Val17-FN38] (H-FLFHYSKTQKLGKSNEELQSPFASQSRGYFLFRPRN-NH2; N-terminus assumed) |  |  | −60% | 73%
